# Results as given in patent US11628160B2, “Compositions and methods for treating brain injury” (Azevan Pharmaceuticals, Inc., priority 2017, dated 2023).
# Biological target: T1, human V1a receptor (Homo sapiens, UniProt P37288)
# T1 construct: host or cells: CHO cells
# Experiment: Human vasopressin V1a receptor binding assay
# Conditions: hV1a CHO cell line, competition with 1 nM 3H-AVP; for IC50: read-out: V1a Binding Affinity IC50; for Ki: read-out: V1a Ki
# Protocol: EXAMPLE. Human vasopressin V1a receptor binding assay. A cell line expressing the human V1a receptor in CHO cells (henceforth referred to as the hV1a cell line) was obtained from Dr. Michael Brownstein, NIMH, Bethesda, Md., USA. The hV1a cDNA sequence is described by Thibonnier et al., Journal of Biological Chemistry, 269, 3304-3310 (1994), and the expression method was the same as described by Morel et al. (1992). The hV1a cell line was grown in alpha-MEM with 10% fetal bovine serum and 250 ug/ml G418 (Gibco, Grand Island, N.Y., USA). For competitive binding assay, hV1a cells were plated into 6-well culture plate at 1:10 dilution from a confluency flask, and maintained in culture for at least two days. Culture medium was then removed, cells were washed with 2 ml binding buffer (25 mM Hepes, 0.25% BSA, 1×DMEM, PH=7.0). To each well, 990 μl binding buffer containing 1 nM 3H-AVP was added, and followed by 10 μl series diluted Example compounds dissolved in DMSO. […] 100 nM cold AVP (Sigma) was used to assess non-specific binding. Cells were incubated for 45 minutes at 37° C., assay mixture was removed and each well was washed three times with PBS (pH=7.4). 1 ml 2% SDS was added per well and plates were let sit for 30 minutes. The whole content in a well was transferred to a scintillation vial. Each well was rinsed with 0.5 ml PBS which was then added to the corresponding vial. Scintillation fluid (Ecoscint, National Diagnostics, Atlanta, Ga.) was then added at 3 ml per vial. Samples were counted in a liquid scintillation counter (Beckman LS3801). IC50 values were calculated by Prism Curve fitting software.
# All of the alkanedioic esters and amides exemplified in the foregoing examples dissolved in DMSO were tested in this assay. Binding curves were generated according to methods described by Thibonnier et al. (1994). [^3H]-AVP was added to the hV1a cell cultures followed by 10-fold dilutions of each test compound.
# T1 sequence (P37288 whole entry): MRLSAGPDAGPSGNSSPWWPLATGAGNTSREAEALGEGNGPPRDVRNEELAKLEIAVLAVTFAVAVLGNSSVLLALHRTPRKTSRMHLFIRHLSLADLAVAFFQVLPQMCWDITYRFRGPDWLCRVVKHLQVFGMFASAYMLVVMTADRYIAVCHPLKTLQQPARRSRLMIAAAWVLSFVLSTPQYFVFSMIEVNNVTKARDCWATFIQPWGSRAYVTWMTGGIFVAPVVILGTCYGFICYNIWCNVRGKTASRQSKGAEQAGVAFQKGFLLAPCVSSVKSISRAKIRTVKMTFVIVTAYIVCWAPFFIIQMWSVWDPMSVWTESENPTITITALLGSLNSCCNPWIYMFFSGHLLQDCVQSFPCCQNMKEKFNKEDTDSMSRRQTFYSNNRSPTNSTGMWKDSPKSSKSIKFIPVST
Compound,IC50 [nM],Ki [nM]
O=C(NC1CCc2ccccc21)C(CCC(=O)N1CCN(C2CCCCC2)CC1)N1C(=O)C(N2C(=O)OCC2c2ccccc2)C1C=Cc1ccccc1 (stereo not shown) [Example 221R],5.13,3.14
Cc1ccccc1C(C)(C)NC(=O)C(CCC(=O)N1CCN(C2CCCCC2)CC1)N1C(=O)C(N2C(=O)OCC2c2ccccc2)C1C=Cc1ccccc1 (stereo not shown) [Example 221],5.1,
CCN1CCN(C(=O)CCC(C(=O)NC2(c3ccccc3)CCCC2)N2C(=O)C(N3C(=O)OCC3c3ccccc3)C2C=Cc2ccccc2)CC1 (stereo not shown) [Example 239],6.6,4
O=C(NC1(c2ccccc2)CCCC1)C(CCC(=O)N1CCN(Cc2ccccc2)CC1)N1C(=O)C(N2C(=O)OCC2c2ccccc2)C1C=Cc1ccccc1 (stereo not shown) [Example 240],25,15.5
O=C(NC1CCCc2ccccc21)C(CCC(=O)N1CCN(C2CCCC2)CC1)N1C(=O)C(N2C(=O)OCC2c2ccccc2)C1C=Cc1ccccc1 (stereo not shown) [Example 241],2,1.24
COc1cccc(C=CC2C(N3C(=O)OCC3c3ccccc3)C(=O)N2C(CCC(=O)N2CCN(C3CCCCC3)CC2)C(=O)NC2CCCc3ccccc32)c1 (stereo not shown) [Example 242],2.2,1.36
O=C(NC1(c2ccccc2)CCCC1)C(CCC(=O)N1CCN(C2CCCCC2)CC1)N1C(=O)C(N2C(=O)OCC2c2ccccc2)C1C=Cc1cccc(Cl)c1 (stereo not shown) [Example 244],3.4,2.1
O=C(NC1CCCc2ccccc21)C(CCC(=O)N1CCN(C2CCCCC2)CC1)N1C(=O)C(N2C(=O)OCC2c2ccccc2)C1C=Cc1cccc(C(F)(F)F)c1 (stereo not shown) [Example 246],2.1,1.3
N#Cc1cccc(C=CC2C(N3C(=O)OCC3c3ccccc3)C(=O)N2C(CCC(=O)N2CCN(C3CCCCC3)CC2)C(=O)NC2CCCc3ccccc32)c1 (stereo not shown) [Example 248],5.3,3.3
O=C(NC1CCCc2ccccc21)C(CCC(=O)N1CCN(C2CCCCC2)CC1)N1C(=O)C(N2C(=O)OCC2c2ccccc2)C1C=Cc1cccc([N+](=O)[O-])c1 (stereo not shown) [Example 249],1.7,1
O=C(NC1CCCc2ccccc21)C(CCC(=O)N1CCN(C2CCCCC2)CC1)N1C(=O)C(N2C(=O)OCC2c2ccccc2)C1C=Cc1ccccc1Cl (stereo not shown) [Example 250],6.5,4
O=C(NC1CCCc2ccccc21)C(CCC(=O)N1CCN(C2CCCCC2)CC1)N1C(=O)C(N2C(=O)OCC2c2ccccc2)C1C=Cc1cc(Cl)cc(Cl)c1 (stereo not shown) [Example 252],1.8,1.1
CC(NC(=O)C(CC(=O)N1CCC(N2CCCCC2)CC1)N1C(=O)C(N2C(=O)OCC2c2cccc(Cl)c2)C1C=Cc1ccccc1)c1ccccc1 (stereo not shown) [Example 256],2.8,1.7
CC(NC(=O)C(CC(=O)N1CCC(N2CCCCC2)CC1)N1C(=O)C(N2C(=O)OCC2c2ccccc2)C1CCc1ccc(O)cc1)c1ccccc1 (stereo not shown) [Example 594],,19
CC(NC(=O)C(CC(=O)N1CCC(N2CCCCC2)CC1)N1C(=O)C(N2C(=O)OCC2c2ccccc2)C1CCc1cccc([N+](=O)[O-])c1)c1ccccc1 (stereo not shown) [Example 597],6.2,3.8
CC(NC(=O)C(CC(=O)N1CCC(N2CCCCC2)CC1)N1C(=O)C(N2C(=O)OCC2c2ccccc2)C1CCc1cccc(N)c1)c1ccccc1 (stereo not shown) [Example 600],14.4,8.8
O=C(NC(c1ccccc1)C(F)(F)F)C(CC(=O)N1CCC(N2CCCCC2)CC1)N1C(=O)C(N2C(=O)OCC2c2ccccc2)C1CCc1ccccc1 (stereo not shown) [Example 623],,0.85
O=C(NCc1ccccc1F)C(CC(=O)N1CCC(N2CCCCC2)CC1)N1C(=O)C(N2C(=O)OCC2c2ccccc2)C1CCc1ccccc1 (stereo not shown) [Example 677],,3
O=C(NCc1ccccc1Br)C(CC(=O)N1CCC(N2CCCCC2)CC1)N1C(=O)C(N2C(=O)OCC2c2ccccc2)C1CCc1ccccc1 (stereo not shown) [Example 682],,0.9
"(2S)-[(4-cyclohexylpiperazinyl)carbonylethyl]-2-[3(S)-(4(S)-phenyloxazolidin-2-on-3-yl)-4(R)-(2-phenyleth-1-yl)azetidin-2-on-1-yl]acetic acid N—[(R)-1,2,3,4-tetrahydronaphth-1-yl]amide [Example 236A]",9,5.5

# The remaining compounds from weak to strong by Ki, led by results:
IC50 [nM],Ki [nM],Compound
,0.69,CN(Cc1cccc(C(F)(F)F)c1)C(=O)C(CC(=O)N1CCC(N2CCCCC2)CC1)N1C(=O)C(N2C(=O)OCC2c2ccccc2)C1CCc1cccc(Br)c1 (stereo not shown) [Example 617]
1.1,0.68,O=C(NC1CCCc2ccccc21)C(CCC(=O)N1CCN(C2CCCCC2)CC1)N1C(=O)C(N2C(=O)OCC2c2ccccc2)C1C=Cc1cccc(F)c1 (stereo not shown) [Example 245]
,0.63,Cc1cccc(CCC2C(N3C(=O)OCC3c3ccccc3)C(=O)N2C(CC(=O)N2CCC(N3CCCCC3)CC2)C(=O)NC(C)c2ccccc2)c1 (stereo not shown) [Example 778]
0.6,0.39,CN(Cc1cccc(C(F)(F)F)c1)C(=O)C(CC(=O)N1CCC(N2CCCCC2)CC1)N1C(=O)C(N2C(=O)OCC2c2ccccc2)C1C=Cc1cccc(Cl)c1 (stereo not shown) [Example 247]
0.53,0.32,CC(NC(=O)C(CC(=O)N1CCC(N2CCCCC2)CC1)N1C(=O)C(N2C(=O)OCC2c2ccccc2)C1CCc1cccc(Br)c1)c1ccccc1 (stereo not shown) [Example 606]
0.5,0.3,O=C(NC1CCCc2ccccc21)C(CCC(=O)N1CCN(C2CCCCC2)CC1)N1C(=O)C(N2C(=O)OCC2c2ccccc2)C1C=Cc1cccc(Cl)c1 (stereo not shown) [Example 243]
0.5,0.3,O=C(NC1CCCc2ccccc21)C(CCC(=O)N1CCN(C2CCCCC2)CC1)N1C(=O)C(N2C(=O)OCC2c2cccc(Cl)c2)C1C=Cc1cccc(Cl)c1 (stereo not shown) [Example 251]
,0.27,O=C(NC(c1ccccc1)C(F)(F)F)C(CC(=O)N1CCC(N2CCCCC2)CC1)N1C(=O)C(N2C(=O)OCC2c2ccccc2)C1CCc1ccccc1 (stereo not shown) [Example 626]
0.28,0.17,O=C(C(COCc1ccccc1)N1C(=O)C(N2C(=O)OCC2c2ccccc2)C1C=Cc1ccccc1)N1CCC(CN2CCCCC2)CC1 (stereo not shown) [Example 232E]
0.12,0.073,CC(NC(=O)C(CC(=O)N1CCC(N2CCCCC2)CC1)N1C(=O)C(N2C(=O)OCC2c2ccccc2)C1CCc1cccc(Cl)c1)c1ccccc1 (stereo not shown) [Example 559]
